Converted amounts (≈) assume the structure as drawn. Non-standard residues stand in square brackets, D forms with d. Residues, ends and D or L forms follow the SMILES beside them. *: point of attachment. Palmitoyl = CCCCCCCCCCCCCCCC(=O)*; Lauroyl = CCCCCCCCCCCC(=O)*; Hexanoyl = CCCCCC(=O)*
Legend:
Format in all cases: cell-based
[1] = system: Staphylococcus aureus ATCC 29213; assay: MIC, NCCLS M7-A6 broth microdilution, cation-adjusted Mueller Hinton broth (Table 9, no superscript); settings: ATCC 29213
Summary of the method: (§1)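 MIC determined by microdilution in cation-adjusted Mueller Hinton broth after overnight growth at 37° C, defined as the lowest peptide level lacking turbidity.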

[2] = system: Candida albicans ATCC 18804; assay: MIC in yeasts, NCCLS M27-A2 broth microdilution, RPMI 1640 (Table 9, letter e); settings: ATCC 18804
Procedure: Briefly, RPMI 1640 supplemented with glutamine and phenol red as a pH indicator was used in the broth microdilution method. A 96-well plate was inoculated so that the final inoculum of yeast for each well contained between 0.5×10^3 and 2.5×10^3 CFU/milliliter. […] Plates were incubated for 24 to 48 hours at 37° C. The lowest concentration of peptide that contained no visible growth was determined as the MIC. MIC values that utilized this method of MIC determination are indicated in Table 9 with a subscript letter “e.” “Peptide Number” corresponds to peptide compositions and corresponding designations in Table 3.

Salmonella dublin (Lane) = assay: MIC, NCCLS M7-A6 broth microdilution (Table 9, no superscript)
Summary of the method: as §1

[3] = system: Escherichia coli ATCC 25922; assay: as above; settings: ATCC 25922
Summary of the method: as §1

[4] = system: Pseudomonas aeruginosa ATCC 27853; assay: as above; settings: ATCC 27853
Summary of the method: as §1

[5] = system: Staphylococcus epidermidis ATCC 12228; assay: as above; settings: ATCC 12228
Summary of the method: as §1

SMILES	MIC S. aureus [1] [µg/mL]	MIC C. albicans [2] [e ug/mL]	MIC S. dublin (Salmonella dublin (Lane)) [µg/mL]	MIC E. coli [3] [µg/mL]	MIC P. aeruginosa [4] [µg/mL]	MIC S. epidermidis [5] [µg/mL]
CCCCCCCCCCCC(=O)N[C@@H](CCCNC(=N)N)C(=O)N[C@@H](CO)C(=O)N[C@@H](CCCNC(=N)N)C(=O)N[C@@H](Cc1c[nH]c2ccccc12)C(=O)N[C@@H](CCCNC(=N)N)C(=O)N[C@@H](CC(=O)O)C(=O)N[C@H](C(N)=O)C(C)C [Peptide 103, Lauryl-RSRWRDV-NH2] (Lauroyl-RSRWRDV-NH2)	>32	>64	>64	>64	>64	64 (≈ 55.4 µM)
CCCCCCCCCCCC(=O)N[C@@H](Cc1c[nH]c2ccccc12)C(=O)N[C@@H](CCCNC(=N)N)C(=O)N[C@@H](CC(=O)O)C(=O)N[C@H](C(=O)N[C@@H](C)C(=O)N[C@@H](CCCNC(=N)N)C(=O)N[C@@H](CC(N)=O)C(=O)N[C@@H](Cc1ccccc1)C(=O)N[C@@H](CCSC)C(=O)N[C@@H](CCCNC(=N)N)C(N)=O)C(C)C [Peptide 112, Lauryl-WRDVARNFMR-NH2] (Lauroyl-WRDVARNFMR-NH2)	>64	>64	>64	–	–	–
CCCCCCCCCCCC(=O)N[C@H](CCCNC(=N)N)C(=O)N[C@H](CO)C(=O)N[C@H](CCCNC(=N)N)C(=O)N[C@H](Cc1c[nH]c2ccccc12)C(=O)N[C@H](CCCNC(=N)N)C(=O)N[C@H](CC(=O)O)C(=O)N[C@@H](C(=O)N[C@H](C)C(=O)N[C@H](CCCNC(=N)N)C(=O)N[C@H](CC(N)=O)C(N)=O)C(C)C [Peptide 117, Lauryl-rsrwrdvarn-NH2] (Lauroyl-[dR][dS][dR][dW][dR][dD][dV][dA][dR][dN]-NH2)	32 (≈ 21.4 µM)	16	>64	>64	64 (≈ 42.8 µM)	16 (≈ 10.7 µM)
CCCCCCCCCCCC(=O)N[C@H](CCCNC(=N)N)C(=O)N[C@H](CO)C(=O)N[C@H](CCCNC(=N)N)C(=O)N[C@H](Cc1c[nH]c2ccccc12)C(=O)N[C@H](CCCNC(=N)N)C(=O)N[C@H](CC(=O)O)C(=O)N[C@@H](C(=O)N[C@H](C)C(N)=O)C(C)C [Peptide 119, Lauryl-rsrwrdva-NH2] (Lauroyl-[dR][dS][dR][dW][dR][dD][dV][dA]-NH2)	32 (≈ 26.1 µM)	16	64 (≈ 52.2 µM)	64 (≈ 52.2 µM)	32 (≈ 26.1 µM)	16 (≈ 13 µM)
CCCCCCCCCCCC(=O)N[C@H](CO)C(=O)N[C@H](CCCNC(=N)N)C(=O)N[C@H](Cc1c[nH]c2ccccc12)C(=O)N[C@H](CCCNC(=N)N)C(=O)N[C@H](CC(=O)O)C(=O)N[C@@H](C(=O)N[C@H](C)C(N)=O)C(C)C [Peptide 121, Lauryl-srwrdva-NH2] (Lauroyl-[dS][dR][dW][dR][dD][dV][dA]-NH2)	>64	>64	>64	>64	>64	>64
CCCCCCCCCCCC(=O)N[C@H](Cc1c[nH]c2ccccc12)C(=O)N[C@H](CCCNC(=N)N)C(=O)N[C@H](CC(=O)O)C(=O)N[C@@H](C(=O)N[C@H](C)C(=O)N[C@H](CCCNC(=N)N)C(=O)N[C@H](CC(N)=O)C(N)=O)C(C)C [Peptide 123, Lauryl-wrdvarn-NH2] (Lauroyl-[dW][dR][dD][dV][dA][dR][dN]-NH2)	>64	64	>64	>64	>64	64 (≈ 58.3 µM)
CCCCCCCCCCCC(=O)N[C@H](CCCNC(=N)N)C(=O)N[C@H](CC(=O)O)C(=O)N[C@@H](C(=O)N[C@H](C)C(=O)N[C@H](CCCNC(=N)N)C(=O)N[C@H](CC(N)=O)C(=O)N[C@H](Cc1ccccc1)C(N)=O)C(C)C [Peptide 124, Lauryl-rdvarnf-NH2] (Lauroyl-[dR][dD][dV][dA][dR][dN][dF]-NH2)	>64	64	>64	>64	>64	>64
CCCCCCCCCCCC(=O)N[C@@H](C(=O)N[C@H](C)C(=O)N[C@H](CCCNC(=N)N)C(=O)N[C@H](CC(N)=O)C(=O)N[C@H](Cc1ccccc1)C(=O)N[C@H](CCSC)C(=O)N[C@H](CCCNC(=N)N)C(N)=O)C(C)C [Peptide 126, Lauryl-varnfmr-NH2] (Lauroyl-[dV][dA][dR][dN][dF][dM][dR]-NH2)	>64	8	>64	>64	>64	>64
CCCCCCCCCCCC(=O)N[C@H](Cc1c[nH]c2ccccc12)C(=O)N[C@H](CCCNC(=N)N)C(=O)N[C@H](CC(=O)O)C(=O)N[C@@H](C(=O)N[C@H](C)C(=O)N[C@H](CCCNC(=N)N)C(=O)N[C@H](CC(N)=O)C(=O)N[C@H](Cc1ccccc1)C(=O)N[C@H](CCSC)C(=O)N[C@H](CCCNC(=N)N)C(N)=O)C(C)C [Peptide 129, Lauryl-wrdvarnfmr-NH2] (Lauroyl-[dW][dR][dD][dV][dA][dR][dN][dF][dM][dR]-NH2)	>64	>64	>64	>64	>64	32 (≈ 20.9 µM)
CCCCCCCCCCCC(=O)N[C@@H](CCCNC(=N)N)C(=O)N[C@@H](CO)C(=O)N[C@@H](CCCNC(=N)N)C(=O)N[C@@H](Cc1c[nH]c2ccccc12)C(=O)N[C@@H](CCCNC(=N)N)C(=O)N[C@@H](CC(=O)O)C(=O)N[C@H](C(=O)N[C@@H](C)C(=O)N[C@@H](CCCNC(=N)N)C(=O)N[C@@H](CC(N)=O)C(=O)N[C@@H](Cc1ccccc1)C(=O)N[C@@H](CC(C)C)C(=O)N[C@@H](CCCNC(=N)N)C(N)=O)C(C)C [Peptide 135, Lauryl-RSRWRDVARNFLR-NH2] (Lauroyl-RSRWRDVARNFLR-NH2)	2 (≈ 1.05 µM)	2	2 (≈ 1.05 µM)	4 (≈ 2.09 µM)	4 (≈ 2.09 µM)	1 (≈ 0.523 µM)
CCCCCCCCCCCC(=O)N[C@H](CCCNC(=N)N)C(=O)N[C@H](Cc1c[nH]c2ccccc12)C(=O)N[C@H](CCCNC(=N)N)C(=O)N[C@H](CC(=O)O)C(=O)N[C@H](CC(C)C)C(=O)N[C@H](C)C(=O)N[C@H](CCCNC(=N)N)C(N)=O [Peptide 244, Lauryl-rwrdlar-NH2] (Lauroyl-[dR][dW][dR][dD][dL][dA][dR]-NH2)	32 (≈ 27.7 µM)	–	>64	64 (≈ 55.5 µM)	>64	64 (≈ 55.5 µM)
CCCCCC(=O)N[C@H](CCCNC(=N)N)C(=O)N[C@H](CO)C(=O)N[C@H](CCCNC(=N)N)C(=O)N[C@H](Cc1c[nH]c2ccccc12)C(=O)N[C@H](CCCNC(=N)N)C(=O)N[C@H](CC(=O)O)C(=O)N[C@@H](C(=O)N[C@H](C)C(=O)N[C@H](CCCNC(=N)N)C(=O)N[C@H](CC(N)=O)C(=O)N[C@H](Cc1ccccc1)C(=O)N[C@H](CC(C)C)C(=O)N[C@H](CCCNC(=N)N)C(N)=O)C(C)C [Peptide 251, Hexyl-rsrwrdvarnflr-NH2] (Hexanoyl-[dR][dS][dR][dW][dR][dD][dV][dA][dR][dN][dF][dL][dR]-NH2)	–	64	–	–	–	–
CCCCCCCCCCCCCCCC(=O)N[C@H](CCCNC(=N)N)C(=O)N[C@H](CO)C(=O)N[C@H](CCCNC(=N)N)C(=O)N[C@H](Cc1c[nH]c2ccccc12)C(=O)N[C@H](CCCNC(=N)N)C(=O)N[C@H](CC(=O)O)C(=O)N[C@@H](C(=O)N[C@H](C)C(=O)N[C@H](CCCNC(=N)N)C(=O)N[C@H](CC(N)=O)C(=O)N[C@H](Cc1ccccc1)C(=O)N[C@H](CC(C)C)C(=O)N[C@H](CCCNC(=N)N)C(N)=O)C(C)C [Peptide 254, Palmityl-rsrwrdvarnflr-NH2] (Palmitoyl-[dR][dS][dR][dW][dR][dD][dV][dA][dR][dN][dF][dL][dR]-NH2)	32 (≈ 16.2 µM)	–	>64	>64	64 (≈ 32.5 µM)	4 (≈ 2.03 µM)
